Test system: Rodent neuron cell cultures treated with anti-NMDAR antibodies
Assay: Example 3: NMDAR localization in neuron cultures treated with anti-NMDAR antibodies
Format: cell-based
Settings: Glycine 100-500 uM; histological measurements
Experimental: Rodent neuron cell cultures are treated with anti-NMDAR antibodies as described in Hughes E G et al., J Neurosci 2012 30(17):5866-75. […] The determination of receptors localization and other relevant measures is based on histological measurements.
Immunohistochemical methods will be applied to document (a) localization of NMDAR and NR1 and NR2 subunits; (b) loss of oligodendrocytes; (c) changes in astrocytes (S100beta) and microglia (cd11b), (d) expression of neurotrophic factors: brain derived neurotrophic factor (BDNF), nerve growth factor (NGF) and ciliary neurotrophic factor (CNTF); (e) markers of neurogenesis—doublecortin (17) and apoptosis—caspase3 (9). Quantification of histological measurements is based on images in several cortical subregions, striatum, […], hippocampus, and cerebellum.

## NCC(=O)O [Glycine]
  Effect on NMDAR intracellular localization: reversing receptor intracellular localization

Source: patent US11213522B2, “Autoimmune-induced glutamatergic receptor dysfunction methods and treatments” (SARAH HERZOG MEMORIAL HOSPITAL EZRAT NASHIM ASSOCIATION, priority 2013, dated 2022)
